Measurements from US5585504A, “Process of making cox-2 inhibitors having a lactone bridge” (Merck & Co., Inc., priority 1994, dated 1996).
Read-outs that look alike come from different tables or passages of the source.

Tested on: carrageenan-induced paw edema
Assay: Rat paw edema assay (carrageenan)
Assay type: in vivo, Male Sprague-Dawley rats
Details: po, 1 hr before carrageenan, paw volume 3 hr after
Protocol: Male Sprague-Dawley rats (150-200g) were fasted overnight and were given po either vehicle (5% tween 80 or 1% methocel) or a test compound at 9-10 am. One hr later, a line was drawn using a permanent marker at the level above the ankle in one hind paw to define the area of the paw to be monitored. The paw volume (VOh) was measured using a plethysmometer (Ugo-Basile,Italy) based on the principle of water displacement. The animals were then injected subplantarly with 50 ul of a 1% carrageenan solution in saline (FMC Corp, Maine) into the paw using an insulin syringe with a 25-gauge needle (i.e. 500 ug carrageenan per paw). Three hr later, the paw volume (V3h) was measured and the increases in paw volume (V3h -VOh) were calculated. The animals were euthanized by CO2 aphyxiation and the absence or presence of stomach lesions scored. Stomach scores were expressed as the sum of total lesions in mm. Paw edema data were compared with the vehicle-control group and percent inhibition calculated taking the values in the control group as 100%. […] All treatment groups were coded to eliminate observer bias.

## COc1ccc2c(c1)c(CC(=O)O)c(C)n2C(=O)c1ccc(Cl)cc1 [Indomethacin, reference compound]
read-out: ED30
  ED30: 1 mg/kg

## CS(=O)(=O)c1ccc(C2=C(c3ccc(Cl)c(Cl)c3)C(=O)OC2)cc1
  ED30 (Table I, column head not given): 0.23 mg/kg

## CS(=O)(=O)c1ccc(C2=C(c3ccc(F)c(Br)c3)C(=O)OC2)cc1
Rattus norvegicus, 3 h, read-out: ED30 (Table I, column head not given)
  ED30: ~1 mg/kg
